Publication PMC6499206, “Quantification of Volatile Metabolites Derived From Garlic (Allium sativum) in Human Urine” (Frontiers in Nutrition, 2019)

Assay: Quantification of garlic-derived metabolites in human urine after ingestion of 3 g raw garlic (SIDA, SAFE, HRGC-MS / HRGC-GC-MS)
Assay type: in vivo
Conditions: 3 g raw garlic
Source text: Human urine samples were obtained from 18 volunteers (age 22–38 years, mean 27 years; 11 females, 7 males); thereby, one volunteer conducted the whole experimental series twice. At the time of examination, volunteers reported no known illness that might have potentially influenced the metabolism or the excretion of urine. The test persons were instructed to avoid foods that were rich in sulfur-containing substances at the testing day as well as 2 days preceding the testing day, namely garlic, onion, wild garlic, chives, cabbage, and leek, and were only allowed to consume the garlic sample provided in the course of the experiments. Additionally, subjects were asked to keep records of the food (including food supplements) and beverages they consumed during these 3 testing days. Generally, the overall panelists' requirements were in accordance with our previous studies ([5], [16]).
On the sampling day, the outer garlic cloves of a whole garlic bulb were peeled and cut into ~3 mm cubes by using a garlic cutter (Genius GmbH, Limburg/Lahn, Germany). Subsequently these cubes were thoroughly mixed and aliquoted into 3 g portions. Three to four test persons conducted the experiment at the same day. Each test person was asked to ingest a garlic portion of 3 g. In total, eight consecutive urine samples were provided by each test person, comprising one whole urine set. The samples were collected in sterile brown glass bottles, with sampling times as follows: one sample was provided directly prior to garlic consumption. The series of the second to eighth sample was then obtained at about 0.5, 1, 2, 4, 6, 8, and 24 h after garlic consumption, respectively. Between the first urine sample (prior to garlic consumption) and the seventh urine sample (8 h after garlic consumption) test persons only spent urine at the specific time points mentioned before. Another sample was provided at the next morning (24 h after garlic consumption). Between the samples provided 8 and 24 h after garlic consumption no urine was collected. All samples were immediately placed into a −80°C freezer and were kept frozen until further analysis.
The samples of each set were termed according to their sampling time. The following list provides the time intervals that are related to the respective sample name: • - pre: before garlic consumption • - 0.5 h post: 0.4–0.8 h after garlic consumption • - 1 h post: 0.9–1.3 h after garlic consumption • - 2 h post: 1.8 h−2.2 h after garlic consumption • - 4 h post: 3.8–4.4 h after garlic consumption • - 6 h post: 5.8–6.4 h after garlic consumption • - 8 h post: 7.8–8.4 h after garlic consumption • - 24 h post: 23.8–25.6 h after garlic consumption
A creatinine kit (Labor+Technik Eberhard Lehmann GmbH, Berlin, Germany) was used to determine the creatinine content in each urine sample. The determination principle of this kit is based on the reaction of creatinine with picric acid under basic conditions (Jaffé reaction). The formed complex was detected photometrically at a wavelength of 492 nm.
For quantification purposes, the deuterated standards ^2H3-AMS, ^2H3-AMSO, and ^2H3-AMSO2 were added to the sample and stirred for 10 min. Subsequently, DCM was added in a ratio of 1:2 (DCM/human urine; v/v) and this solution was stirred for further 30 min at room temperature. To isolate the volatile fraction from the urine samples we then applied SAFE-distillation ([17]), thereby distilling the respective samples at 50°C. After completion of the distillation process, 10 mL of DCM were applied in each case to rinse the SAFE apparatus and to ensure complete transition of the volatile compounds. This process was repeated with another 10 mL of DCM. After thawing, the obtained aqueous distillate phase was extracted three times with 25 mL DCM. The organic phases were combined, dried over anhydrous Na2SO4 and concentrated to a total volume of 100 μL by means of Vigreux distillation and subsequent micro-distillation at 50°C. […]

- metabolite concentration in urine, creatinine-normalized (U VII, 1 h post (1.08 h)): 0.8 µg/mmol creatinine
- metabolite concentration in urine (U VII, 2 h post (2.00 h)): 0.8 µg/kg
- metabolite concentration in urine, creatinine-normalized (U VII, 2 h post (2.00 h)): 0.8 µg/mmol creatinine
- metabolite concentration in urine (U VII, 4 h post (4.00 h)): 0.6 µg/kg
- metabolite concentration in urine, creatinine-normalized (U VII, 4 h post (4.00 h)): 0.3 µg/mmol creatinine
- metabolite concentration in urine (U VII, 6 h post (6.00 h)): 0.7 µg/kg
- metabolite concentration in urine, creatinine-normalized (U VII, 6 h post (6.00 h)): 0.2 µg/mmol creatinine
- metabolite concentration in urine (U VII, 8 h post (8.00 h)): 0.4 µg/kg
- metabolite concentration in urine, creatinine-normalized (U VII, 8 h post (8.00 h)): 0.2 µg/mmol creatinine
- metabolite concentration in urine (U VII, 24 h post (24.00 h)): traces^1
- metabolite concentration in urine, creatinine-normalized (U VII, 24 h post (24.00 h)): traces^1
- metabolite concentration in urine (U VII, pre (-0.25 h)): traces^1
- metabolite concentration in urine, creatinine-normalized (U VII, pre (-0.25 h)): traces^1
- metabolite concentration in urine (U VIII, 0.5 h post (0.52 h)): 1.9 µg/kg
- metabolite concentration in urine, creatinine-normalized (U VIII, 0.5 h post (0.52 h)): 2.3 µg/mmol creatinine
- metabolite concentration in urine (U VIII, 1 h post (1.08 h)): 1.9 µg/kg
- metabolite concentration in urine, creatinine-normalized (U VIII, 1 h post (1.08 h)): 1.1 µg/mmol creatinine
- metabolite concentration in urine (U VIII, 2 h post (2.08 h)): 1.5 µg/kg
- metabolite concentration in urine, creatinine-normalized (U VIII, 2 h post (2.08 h)): 1.4 µg/mmol creatinine
- metabolite concentration in urine (U VIII, 4 h post (4.07 h)): 1.6 µg/kg
- metabolite concentration in urine, creatinine-normalized (U VIII, 4 h post (4.07 h)): 0.7 µg/mmol creatinine
- metabolite concentration in urine (U VIII, 6 h post (6.08 h)): 1.3 µg/kg
- metabolite concentration in urine, creatinine-normalized (U VIII, 6 h post (6.08 h)): 0.3 µg/mmol creatinine
- metabolite concentration in urine (U VIII, 8 h post (7.90 h)): 0.8 µg/kg
- metabolite concentration in urine, creatinine-normalized (U VIII, 8 h post (7.90 h)): 0.3 µg/mmol creatinine
- metabolite concentration in urine (U VIII, 24 h post (23.83 h)): 0.3 µg/kg
- metabolite concentration in urine, creatinine-normalized (U VIII, 24 h post (23.83 h)): 0.1 µg/mmol creatinine
- metabolite concentration in urine (U VIII, pre (-0.33 h)): 0.5 µg/kg
- metabolite concentration in urine, creatinine-normalized (U VIII, pre (-0.33 h)): 0.1 µg/mmol creatinine
- metabolite concentration in urine (U X, 0.5 h post (0.53 h)): 0.4 µg/kg
- metabolite concentration in urine, creatinine-normalized (U X, 0.5 h post (0.53 h)): 0.2 µg/mmol creatinine
- metabolite concentration in urine (U X, 1 h post (1.03 h)): 0.4 µg/kg
- metabolite concentration in urine, creatinine-normalized (U X, 1 h post (1.03 h)): 0.5 µg/mmol creatinine
- metabolite concentration in urine (U X, 2 h post (2.03 h)): 0.3 µg/kg
- metabolite concentration in urine, creatinine-normalized (U X, 2 h post (2.03 h)): 0.5 µg/mmol creatinine
- metabolite concentration in urine (U X, 4 h post (3.85 h)): 0.4 µg/kg
- metabolite concentration in urine, creatinine-normalized (U X, 4 h post (3.85 h)): 0.3 µg/mmol creatinine
- metabolite concentration in urine (U X, 6 h post (5.80 h)): 0.5 µg/kg
- metabolite concentration in urine, creatinine-normalized (U X, 6 h post (5.80 h)): 0.2 µg/mmol creatinine
- metabolite concentration in urine (U X, 8 h post (7.75 h)): 0.3 µg/kg
- metabolite concentration in urine, creatinine-normalized (U X, 8 h post (7.75 h)): 0.1 µg/mmol creatinine
- metabolite concentration in urine (U X, 24 h post (23.97 h)): 0.2 µg/kg
- metabolite concentration in urine, creatinine-normalized (U X, 24 h post (23.97 h)): 0.02 µg/mmol creatinine
- metabolite concentration in urine (U X, pre (-0.07 h)): < LOD^1
- metabolite concentration in urine, creatinine-normalized (U X, pre (-0.07 h)): < LOD^1
- metabolite concentration in urine (U XI, 0.5 h post (0.50 h)): 0.4 µg/kg
- metabolite concentration in urine, creatinine-normalized (U XI, 0.5 h post (0.50 h)): 0.4 µg/mmol creatinine
- metabolite concentration in urine (U XI, 1 h post (1.02 h)): 0.6 µg/kg
- metabolite concentration in urine, creatinine-normalized (U XI, 1 h post (1.02 h)): 0.7 µg/mmol creatinine
- metabolite concentration in urine (U XI, 2 h post (2.00 h)): 0.5 µg/kg
- metabolite concentration in urine, creatinine-normalized (U XI, 2 h post (2.00 h)): 0.7 µg/mmol creatinine
- metabolite concentration in urine (U XI, pre (-0.08 h)): 0.8 µg/kg
- metabolite concentration in urine, creatinine-normalized (U XI, pre (-0.08 h)): 0.2 µg/mmol creatinine
- metabolite concentration in urine (U XII, 0.5 h post (0.48 h)): 0.3 µg/kg
- metabolite concentration in urine, creatinine-normalized (U XII, 0.5 h post (0.48 h)): 0.04 µg/mmol creatinine
- metabolite concentration in urine (U XII, 1 h post (1.03 h)): 0.3 µg/kg
- metabolite concentration in urine, creatinine-normalized (U XII, 1 h post (1.03 h)): 0.3 µg/mmol creatinine
- metabolite concentration in urine (U XII, 2 h post (1.85 h)): 0.9 µg/kg
Compound: C=CCSC [AMS, allyl methyl sulfide]
